From paper PMC10819071, “SG-ATT: A Sequence Graph Cross-Attention Representation Architecture for Molecular Property Prediction” (Molecules, 2024)
pIC50: −log10 of the molar value.

Tested on: HBV
Assay: in vitro validation of anti-HBV capacity (IC50)
Type: cell-based
Details: Hepatitis B virus, read-out: IC50, In Vitro Validation
Text: (§1) Chronic hepatitis B caused by hepatitis B virus (HBV) is a kind of serious disease. HBV inhibitory drugs are developed from a variety of compounds, and to further explore whether anti-HBV compounds are potentially promising for research, it is necessary to validate their anti-HBV capacity (IC50) and HepG2 hepatocytotoxicity (CC50). We used compounds screened with the fields of target name and target tissue from the CHEMBL database as training data and set the HBV (IC50) concentration and hepatotoxicity concentration (CC50) thresholds at 20 μM (the smaller the IC50 value; the more […]) and 100 μM (higher CC50 concentration indicates lower toxicity), respectively, to convert the compound activity data against the target into binary data for prediction. To validate the reliability of the SG-ATT model, we also used in vitro validation to test the model on IC50 and CC50 to predict the properties of the compounds. Throughout the in vitro validation, we tested the activity data of 100 compounds for IC50 and CC50.
(§2) We counted the model prediction results and listed the top 10 compounds ranked using μM prediction size. The first represents the largest μM, and the 10th represents the smallest μM.

SMILES | pIC50
O=C(N[C@H](CO)Cc1ccccc1)/C(NC(=O)c1ccccc1)=C(/Br)c1ccc(Br)cc1 [Br/C(C1=CC=C(Br)C=C1)=C(NC(C2=CC=CC=C2)=O)/ C(N[C@@H](CC3=CC=CC=C3)CO)=O] | 5.35
O=C(N[C@H](CO)Cc1ccccc1)/C(NC(=O)c1ccccc1)=C(/Br)c1ccccc1 [Br/C(C1=CC=CC=C1)=C(NC(C2=CC=CC=C2)=O)/ C(N[C@H](CO)CC3=CC=CC=C3)=O] | 5.41
O=C(N[C@H](CO)Cc1ccccc1)/C(NC(=O)c1ccccc1)=C(/Br)c1ccccc1Cl [Br/C(C1=CC=CC=C1Cl)=C(NC(C2=CC=CC=C2)=O)/ C(N[C@@H](CC3=CC=CC=C3)CO)=O] | 5.73
Cc1cccc(/C=C(/NC(=O)c2ccccc2)C(=O)N[C@H](CO)Cc2ccccc2)c1 [O=C(N[C@H](CO)CC1=CC=CC=C1)/C(NC(C2=CC=CC=C2) =O)=C\C3=CC=CC(C)=C3] | < 4.70
O=C(N[C@H](CO)Cc1ccccc1)/C(=C\c1ccccc1Br)NC(=O)c1ccccc1 [O=C(N[C@H](CO)CC1=CC=CC=C1)/C(NC(C2=CC=CC=C2)=O) =C\C3=CC=CC=C3Br] | < 4.70
O=C(N[C@H](CO)Cc1ccccc1)/C(=C\c1ccccc1Cl)NC(=O)c1ccccc1 [O=C(N[C@H](CO)CC1=CC=CC=C1)/C(NC(C2=CC=CC=C2)=O) =C\C3=CC=CC=C3Cl] | < 4.70

Same assay, conditions: Hepatitis B virus; anti-HBV capacity; top 10 compounds ranked by SG-ATT prediction; classification threshold 20 μM; read-out: IC50, In Vitro Validation

SMILES | pIC50
COc1ccccc1/C(Br)=C(/NC(=O)c1ccc([N+](=O)[O-])cc1)C(=O)N[C@@H](CO)C(C)C [Br/C(C1=CC=CC=C1OC)=C(NC(C2=CC=C([N+]([O-]) =O)C=C2)=O)/C(N[C@@H](CO)C(C)C)=O] | 5.69
CCN(CC)CCOc1ccc2nc(SCc3ccccc3OC)n(Cc3cccs3)c(=O)c2c1 [O=C1C2=CC(OCCN(CC)CC)=CC=C2N=C (SCC3=C(OC)C=CC=C3)N1CC4=CC=CS4] | 5.71
O=C(N[C@@H](Cc1ccccc1)C(=O)N1CCCCC1)c1ccccc1 [O=C(N1CCCCC1)[C@@H](NC(C2=CC=CC=C2) =O)CC3=CC=CC=C3] | < 4.70
O=C(N[C@H](CO)Cc1ccccc1)/C(=C\c1ccccc1)NC(=O)c1ccccc1F [O=C(N[C@H](CO)CC1=CC=CC=C1)/C(NC(C2=C(F) C=CC=C2)=O)=C\C3=CC=CC=C3] | < 4.70

Tested on: not listed separately
Assay: in vitro validation of HepG2 hepatocytotoxicity (CC50)
Type: cell-based
Details: human, HepG2 cells, top 10 compounds ranked by SG-ATT prediction, classification threshold 100 μM
Text: as §1, §2

SMILES | CC50 [µM]
O=C(N/C(C(=O)N1CCCCC1)=C(\Br)c1nccs1)c1ccc(F)cc1 [O=C(N/C(C(N1CCCCC1)=O)=C(Br)/C2=NC=CS2) C(C=C3)=CC=C3F] | > 100
CC(C)C(CO)NC(=O)[C@H](Cc1ccc(OCCN(C)C)cc1)NC(=O)c1ccccc1 (some centres unmarked) [O=C(NC(CO)C(C)C)[C@@H](NC(C1=CC=CC=C1)=O)CC2=CC=C(OCCN(C)C)C=C2] | 89.1

Same assay, conditions: human, top 10 compounds ranked by SG-ATT prediction, classification threshold 100 μM

SMILES | CC50 [µM]
N#Cc1ccc(/C(Br)=C(/NC(=O)c2ccccc2)C(=O)N[C@H](CO)Cc2ccccc2)cc1 [Br/C(C1=CC=C(C#N)C=C1)=C(NC(C2=CC=CC=C2)=O)/ C(N[C@@H](CC3=CC=CC=C3)CO)=O] | > 100
O=C(N[C@H](CO)Cc1ccccc1)/C(NC(=O)c1ccccc1)=C(/Br)c1ccc(O)cc1 [Br/C(C1=CC=C(O)C=C1)=C(NC(C2=CC=CC=C2)=O)/ C(N[C@H](CO)CC3=CC=CC=C3)=O] | > 100
O=C(N[C@H](CO)Cc1ccccc1)/C(NC(=O)c1ccccc1)=C(/Br)c1ccccc1Br [Br/C(C1=CC=CC=C1Br)=C(NC(C2=CC=CC=C2)=O)/ C(N[C@@H](CC3=CC=CC=C3)CO)=O] | > 100
COc1ccccc1/C(Br)=C(/NC(=O)c1ccc([N+](=O)[O-])cc1)C(=O)N[C@@H](CO)CC(C)C [O=C(N[C@H](CC(C)C)CO)/C(NC(C1=CC=C([N+]([O-])=O) C=C1)=O)=C(Br)\C2=CC=CC=C2OC] | 86.6
O=C(N[C@H](CO)Cc1ccccc1)/C(=C\c1ccc(Br)cc1)NC(=O)c1ccccc1 [O=C(N[C@H](CO)CC1=CC=CC=C1)/C (NC(C2=CC=CC=C2)=O)=C\C3=CC=C(Br)C=C3] | 72.7
O=C(N[C@H](CO)Cc1ccccc1)/C(=C\c1ccccc1)NC(=O)c1ccccc1F [O=C(N[C@H](CO)CC1=CC=CC=C1)/C(NC(C2=C(F) C=CC=C2)=O)=C\C3=CC=CC=C3] | > 100
Cc1cccc(/C=C(/NC(=O)c2ccccc2)C(=O)N[C@H](CO)Cc2ccccc2)c1 [O=C(N[C@H](CO)CC1=CC=CC=C1)/C(NC(C2=CC=CC=C2) =O)=C\C3=CC=CC(C)=C3] | > 100
O=C(N[C@H](CO)Cc1ccccc1)/C(=C\c1ccccc1Cl)NC(=O)c1ccccc1 [O=C(N[C@H](CO)CC1=CC=CC=C1)/C(NC(C2=CC=CC=C2)=O) =C\C3=CC=CC=C3Cl] | > 100
